Source: paper PMC9962224, “Novel Inhibitors of Acetyl- and Butyrylcholinesterase Derived from Benzohydrazides: Synthesis, Evaluation and Docking Study” (Pharmaceuticals, 2023)

Columns and labels:
[1] = biological target: T1, AChE (obtained from electric eel; EeAChE) (Electrophorus electricus, UniProt O42275); assay: biochemical; assay type: biochemical; settings: for Selectivity BChE/AChE: SI = ratio of IC50 for BChE/IC50 for AChE, above 1 = stronger inhibition of AChE; for IC50: electric eel AChE, mean ± SD from three independent experiments
T1 construct: AChE (obtained from electric eel); purchased Merck (Prague, Czech Republic); host or cells: electric eel (natural source)
T1 sequence (O42275 24-633): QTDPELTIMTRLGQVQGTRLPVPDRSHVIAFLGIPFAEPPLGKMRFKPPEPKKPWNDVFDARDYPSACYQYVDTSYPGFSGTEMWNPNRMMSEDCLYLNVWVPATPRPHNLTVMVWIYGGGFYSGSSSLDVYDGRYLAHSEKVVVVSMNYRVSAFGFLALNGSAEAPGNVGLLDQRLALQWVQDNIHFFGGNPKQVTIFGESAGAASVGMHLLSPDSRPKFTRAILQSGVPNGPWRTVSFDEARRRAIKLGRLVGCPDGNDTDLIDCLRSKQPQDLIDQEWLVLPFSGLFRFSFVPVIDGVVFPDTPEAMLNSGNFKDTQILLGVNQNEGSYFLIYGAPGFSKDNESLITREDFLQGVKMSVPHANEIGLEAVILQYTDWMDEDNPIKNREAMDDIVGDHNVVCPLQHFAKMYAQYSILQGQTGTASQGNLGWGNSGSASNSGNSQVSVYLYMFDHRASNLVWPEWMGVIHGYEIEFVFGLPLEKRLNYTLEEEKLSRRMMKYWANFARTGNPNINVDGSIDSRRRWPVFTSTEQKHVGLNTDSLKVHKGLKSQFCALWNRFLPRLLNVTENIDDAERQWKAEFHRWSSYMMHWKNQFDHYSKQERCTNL
From the text: (§1) Hydrazinecarboxamides 1–3 were examined in vitro for their potential to inhibit the function of AChE (obtained from electric eel) and BChE from equine serum using Ellman’s spectrophotometric method (Table 2). The activities are expressed as IC50 values, i.e., concentrations leading to 50% inhibition of enzymatic activity. Based on the IC50 values for AChE and BChE, we calculated selectivity indexes (SI) that quantified the selectivity for each cholinesterase. SI is the ratio of IC50 for BChE/IC50 for AChE.
(§2) The enzyme activity in the final reaction mixture (2000 µL) was 0.2 U/mL, the concentration of ATCh (or BTCh) was 40 µM, and the concentration of DTNB was 100 µM for all reactions. The investigated derivatives were dissolved in DMSO and then diluted with demineralized water (conductivity 3 μS, equipment supplier BKG Water Treatment, Hradec Králové, Czech Republic) to a concentration of 1000 µM. Five different inhibitor concentrations were used for all tested compounds in the final reaction mixture. The final concentration of DMSO was 0.2%. All experiments were performed in triplicate. The average values of the reaction rate (v0-uninhibited reaction, vi-inhibited reaction) were used to construct the dependence of v0/vi on the concentration of inhibitors. IC50 values were calculated from obtained regression curve equations.
(§3) Acetylcholinesterase originating from electric eels (Electrophorus electricus L.; EeAChE) and butyrylcholinesterase obtained from equine serum (EqBChE) were used.

[2] = biological target: T2, BChE from equine serum (EqBChE) (Equus caballus, UniProt P81908); assay: biochemical; assay type: biochemical; settings: for IC50: equine serum BChE, mean ± SD from three independent experiments
T2 construct: BChE from equine serum; purchased Merck (Prague, Czech Republic); host or cells: equine serum (natural source)
T2 sequence (P81908 whole entry): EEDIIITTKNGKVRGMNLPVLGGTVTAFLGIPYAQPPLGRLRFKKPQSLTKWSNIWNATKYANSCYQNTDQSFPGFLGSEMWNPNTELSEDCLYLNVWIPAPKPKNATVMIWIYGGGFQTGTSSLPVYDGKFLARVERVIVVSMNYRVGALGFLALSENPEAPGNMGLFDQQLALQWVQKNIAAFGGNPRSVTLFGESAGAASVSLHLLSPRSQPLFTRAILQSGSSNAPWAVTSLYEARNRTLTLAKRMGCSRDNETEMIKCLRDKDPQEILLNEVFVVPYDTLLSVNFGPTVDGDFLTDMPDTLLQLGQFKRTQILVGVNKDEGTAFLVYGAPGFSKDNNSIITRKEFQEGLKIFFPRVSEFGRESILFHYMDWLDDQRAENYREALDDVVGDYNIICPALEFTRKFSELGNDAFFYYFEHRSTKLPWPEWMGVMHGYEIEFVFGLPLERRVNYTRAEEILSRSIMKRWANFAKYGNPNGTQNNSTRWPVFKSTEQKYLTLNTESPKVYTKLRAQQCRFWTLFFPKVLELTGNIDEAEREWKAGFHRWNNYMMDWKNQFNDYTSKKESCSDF
From the text: as §1, §2, §3

Row | Structure (SMILES) | Selectivity BChE/AChE [1] | IC50 [1] | IC50 [2] | Fold superiority of BChE inhibition over parent compound P2 ([2]; vs. P2) | Fold improvement of BChE inhibition, tridecyl vs. N-methyl analog ([2]; 1g vs. 1h)
1 | CNC(=O)NNC(=O)c1ccc([N+](=O)[O-])cc1 [1k, N-Methyl-2-(4-nitrobenzoyl)hydrazine-1-carboxamide] | 3.3 | 54 ± 2.21 µM | 178 ± 9.13 µM |  | 
2 | CCCCCCCCCCCCCNC(=O)NNC(=O)c1ccc([N+](=O)[O-])cc1 [1l, 2-(4-Nitrobenzoyl)-N-tridecylhydrazine-1-carboxamide] | 0.4 | 53.7 ± 1.2 µM | 22.31 ± 0.09 µM | 12.4 × | 
3 | CCCCCCCCCCCCCNC(=O)NNC(=O)c1ccc(C)cc1 [1p, 2-(4-Methylbenzoyl)-N-tridecylhydrazine-1-carboxamide] | 2.8 | 100 ± 2.1 µM | 277 ± 6.5 µM |  | 
4 | CCCCCCCCCCCCCNC(=O)NNC(=O)c1ccc(OC)cc1 [1v, 2-(4-Methoxybenzoyl)-N-tridecylhydrazine-1-carboxamide] | 4.5 | 83.6 ± 3.16 µM | 376 ± 17 µM |  | 
5 | CCCCCCCCCCCCCNC(=O)NNC(=O)Cc1ccc(C(F)(F)F)cc1 [3b, N-Tridecyl-2-{2-[4-(trifluoromethyl)phenyl]acetyl}hydrazine-1-carboxamide] | 3.6 | 81.69 ± 0.45 µM | 292.9 ± 1.72 µM |  | 
6 | CCCCCCCCCCCCCNC(=O)NNC(=O)c1ccccc1[N+](=O)[O-] [2h, 2-(2-Nitrobenzoyl)-N-tridecylhydrazine-1-carboxamide] | >9.1 | 54.9 ± 1.08 µM | > 500 µM |  | 
7 | CCCCCCCCCCCCCNC(=O)NNC(=O)c1ccc(-c2ccccc2)cc1 [1t, 2-(4-Phenylbenzoyl)-N-tridecylhydrazine-1-carboxamide] | 0.6 | 51.1 ± 0.98 µM | 32.1 ± 0.18 µM |  | 
8 | CNC(=O)NNC(=O)c1ccccc1Br [2k, 2-(2-Bromobenzoyl)-N-methylhydrazine-1-carboxamide] | >8.4 | 59.4 ± 1.83 µM | > 500 µM |  | 
9 | CNC(=O)NNC(=O)c1ccc(Oc2ccccc2)cc1 [1w, N-Methyl-2-(4-phenoxybenzoyl)hydrazine-1-carboxamide] | 4.0 | 75 ± 0.84 µM | 302.3 ± 2.11 µM |  | 
10 | CCCCCCCCCCCCCNC(=O)NNC(=O)c1ccc(C#N)cc1 [1n, 2-(4-Cyanobenzoyl)-N-tridecylhydrazine-1-carboxamide] | 7.6 | 54.6 ± 1.27 µM | 418 ± 15.7 µM |  | 
11 | CCCCCCCCCCCCCNC(=O)NNC(=O)c1ccc(OC(F)(F)F)cc1 [1b, N-Tridecyl-2-[4-(trifluoromethoxy)benzoyl]hydrazine-1-carboxamide] | 1.9 | 65.1 ± 1.15 µM | 125.2 ± 1.17 µM |  | 
12 | CNC(=O)NNC(=O)c1ccc(Cl)cc1 [1e, 2-(4-Chlorobenzoyl)-N-methylhydrazine-1-carboxamide] | 7.2 | 44.1 ± 1.79 µM | 319 ± 12.6 µM |  | 
13 | CCCCCCCCCCCCCNC(=O)NNC(=O)c1ccc(I)cc1 [1j, 2-(4-Iodobenzoyl)-N-tridecylhydrazine-1-carboxamide] | 2.4 | 79.7 ± 2.08 µM | 192 ± 3.45 µM |  | 
14 | CNC(=O)NNC(=O)c1ccc(C(C)(C)C)cc1 [1q] | 4.7 | 60 ± 2.47 µM | 281 ± 7.79 µM |  | 
15 | CCCCCCCCCCCCCNC(=O)NNC(=O)c1cccc([N+](=O)[O-])c1 [2f, 2-(3-Nitrobenzoyl)-N-tridecylhydrazine-1-carboxamide] | 3.8 | 62.5 ± 1.79 µM | 236 ± 6.54 µM |  | 
16 | CNC(=O)NNC(=O)c1ccc(O)cc1 [1aa, 2-(4-Hydroxybenzoyl)-N-methylhydrazine-1-carboxamide] | 3.7 | 67.6 ± 1.3 µM | 247 ± 18.4 µM |  | 
17 | CCCCCCCCCCCCCNC(=O)NNC(=O)c1ccc(S(N)(=O)=O)cc1 [1dd, 2-(4-Sulfamoylbenzoyl)-N-tridecylhydrazine-1-carboxamide] | 3.7 | 74.6 ± 1.12 µM | 275 ± 10.7 µM |  | 
18 | CNC(=O)NNC(=O)c1cccc(C(F)(F)F)c1 [2a, N-Methyl-2-[3-(trifluoromethyl)benzoyl]hydrazine-1-carboxamide] | 3.7 | 61.3 ± 1 µM | 225 ± 7.84 µM |  | 
19 | CNC(=O)NNC(=O)c1ccc(I)cc1 [1i, 2-(4-Iodobenzoyl)-N-methylhydrazine-1-carboxamide] | >6.8 | 73.8 ± 1.78 µM | > 500 µM |  | 
20 | CNC(=O)NNC(=O)c1ccc(OC(F)(F)F)cc1 [1a, N-Methyl-2-[4-(trifluoromethoxy)benzoyl]hydrazine-1-carboxamide] | 3.6 | 56.76 ± 0.49 µM | 204 ± 13.5 µM |  | 

Row | Structure (SMILES) | Selectivity BChE/AChE [1] | IC50 [1] | IC50 [2] | Fold superiority of BChE inhibition over parent compound P2 ([2]; vs. P2) | Fold improvement of BChE inhibition, tridecyl vs. N-methyl analog ([2]; 1g vs. 1h)
21 | CCCCCCCCCCCCCNC(=O)NNC(=O)c1ccc(Br)cc1 [1h, 2-(4-Bromobenzoyl)-N-tridecylhydrazine-1-carboxamide] | 0.4 | 72.66 ± 0.67 µM | 27.08 ± 0.07 µM |  | 13.3 ×
22 | CCCCCCCCCCCCCNC(=O)NNC(=O)c1cccc(Br)c1 [2j, 2-(3-Bromobenzoyl)-N-tridecylhydrazine-1-carboxamide] | >11.3 | 44.34 ± 0.1 µM | > 500 µM |  | 
23 | CNC(=O)NNC(=O)c1ccccc1C(F)(F)F [2c, N-Methyl-2-[2-(trifluoromethyl)benzoyl]hydrazine-1-carboxamide] | 4.8 | 61.09 ± 0.03 µM | 296.2 ± 0.87 µM |  | 
24 | CNC(=O)NNC(=O)c1ccccc1 [1ee, 2-Benzoyl-N-methylhydrazine-1-carboxamide] | 3.6 | 63.3 ± 1.49 µM | 229.21 ± 0.08 µM |  | 
25 | CNC(=O)NNC(=O)Cc1ccc(C(F)(F)F)cc1 [3a, N-Methyl-2-{2-[4-(trifluoromethyl)phenyl]acetyl}hydrazine-1-carboxamide] | 1.9 | 68.51 ± 0.25 µM | 131 ± 9.7 µM |  | 
26 | CNC(=O)NNC(=O)c1ccc(C#N)cc1 [1m, 2-(4-Cyanobenzoyl)-N-methylhydrazine-1-carboxamide] | 8.1 | 55.64 ± 0.27 µM | 448 ± 39 µM |  | 
27 | CNC(=O)NNC(=O)c1ccc(-c2ccccc2)cc1 [1s, N-Methyl-2-(4-phenylbenzoyl)hydrazine-1-carboxamide] | 4.7 | 64.4 ± 1.67 µM | 301 ± 7.46 µM |  | 
28 | CCCCCCCCCCCCCNC(=O)NNC(=O)c1ccc(Oc2ccccc2)cc1 [1x, 2-(4-Phenoxybenzoyl)-N-tridecylhydrazine-1-carboxamide] | 6.3 | 58.3 ± 3.29 µM | 368 ± 14.3 µM |  | 
29 | CNC(=O)NNS(=O)(=O)c1ccc(C(F)(F)F)cc1 [3c, N-Methyl-2-{[4-(trifluoromethyl)phenyl]sulfonyl}hydrazine-1-carboxamide] |  | 71.1 ± 0.94 µM | 425 ± 13.2 µM |  | 
30 | CCCCCCCCCCCCCNC(=O)NNC(=O)c1cccc(C(F)(F)F)c1 [2b, N-Tridecyl-2-[3-(trifluoromethyl)benzoyl]hydrazine-1-carboxamide] | 4.6 | 63.9 ± 0.83 µM | 292 ± 10.7 µM |  | 
31 | CNC(=O)NNC(=O)c1ccc(F)cc1 [1c, 2-(4-Fluorobenzoyl)-N-methylhydrazine-1-carboxamide] | 6.4 | 57.2 ± 1.66 µM | 366 ± 78.4 µM |  | 
32 | CNC(=O)NNC(=O)c1ccc(S(N)(=O)=O)cc1 [1cc, N-Methyl-2-(4-sulfamoylbenzoyl)hydrazine-1-carboxamide] | 2.9 | 86.14 ± 0.5 µM | 250 ± 5.22 µM |  | 
33 | CNC(=O)NNC(=O)c1ccc(Br)cc1 [1g, 2-(4-Bromobenzoyl)-N-methylhydrazine-1-carboxamide] | 7.1 | 50.6 ± 1.55 µM | 359.6 ± 2.17 µM |  | 
34 | CNC(=O)NNC(=O)c1cccc([N+](=O)[O-])c1 [2e, N-Methyl-2-(3-nitrobenzoyl)hydrazine-1-carboxamide] | >7.4 | 67.4 ± 1.72 µM | > 500 µM |  | 
35 | CNC(=O)NNC(=O)c1ccc(OC)cc1 [1u, 2-(4-Methoxybenzoyl)-N-methylhydrazine-1-carboxamide] | 3.0 | 57.2 ± 0.92 µM | 171 ± 8.36 µM |  | 
36 | CCCCCCCCCCCCCNC(=O)NNC(=O)c1ccc(O)cc1 [1bb, 2-(4-Hydroxybenzoyl)-N-tridecylhydrazine-1-carboxamide] | 2.0 | 74.7 ± 3.31 µM | 149 ± 10.7 µM |  | 
37 | CNC(=O)NNC(=O)c1ccc(C)cc1 [1o, N-Methyl-2-(4-methylbenzoyl)hydrazine-1-carboxamide] | 4.6 | 62.29 ± 0.56 µM | 284 ± 13.2 µM |  | 
38 | CNC(=O)NNC(=O)c1ccccc1[N+](=O)[O-] [2g, N-Methyl-2-(2-nitrobenzoyl)hydrazine-1-carboxamide] | 3.0 | 64.3 ± 2.23 µM | 191 ± 10.1 µM |  | 
39 | CCCCCCCCCCCCCNC(=O)NNC(=O)c1ccc(C(C)(C)C)cc1 [1r] | 0.8 | 75.25 ± 0.43 µM | 57.24 ± 0.23 µM |  | 
